Data: ChEMBL document CHEMBL3045094, “A cytotoxic agent from Strychnos nux-vomica and biological evaluation of its modified analogues” (Med Chem Res, 2012)
Converted amounts (≈) assume the structure as drawn.

Tests used:
Bacopa monnieri [1] = experiment: Toxicity against Bacopa monnieri assessed as change in leaf colour at 50 ug/ml after 15 days by Bacopa sensor test; assay type: organism-based; conditions: in vivo, 360 h
MCF7 [2] = experiment: Cytotoxic activity against Homo sapiens (human) MCF7 cells incubated for 4 hr followed by compound wash-out measured after doubling time by MTT assay; assay type: functional, cell-based
Caco-2 [3] = experiment: Cytotoxic activity against Homo sapiens (human) Caco2 cells incubated for 4 hr followed by compound wash-out measured after doubling time by MTT assay; assay type: functional, cell-based
WRL68 [4] = experiment: Cytotoxic activity against Homo sapiens (human) WRL68 cells by clonogenic assay; assay type: functional, cell-based
Bacopa monnieri [5] = experiment: Toxicity against Bacopa monnieri assessed as shoot elongation at 50 ug/ml after 15 days by Bacopa sensor test (reference value: 0.8 cm); assay type: organism-based; conditions: in vivo, 360 h
COLO 320 [6] = experiment: Cytotoxic activity against Homo sapiens (human) COLO320 cells by clonogenic assay; assay type: functional, cell-based
WRL68 [7] = experiment: Cytotoxic activity against Homo sapiens (human) WRL68 cells incubated for 4 hr followed by compound wash-out measured after doubling time by MTT assay; assay type: functional, cell-based
Bacopa monnieri [8] = experiment: Toxicity against Bacopa monnieri assessed as number of shoots at 50 ug/ml after 15 days by Bacopa sensor test (reference value: 2); assay type: organism-based; conditions: in vivo, 360 h
PA-1 [9] = experiment: Cytotoxic activity against Homo sapiens (human) PA1 cells incubated for 4 hr followed by compound wash-out measured after doubling time by MTT assay; assay type: functional, cell-based
PA-1 [10] = experiment: Cytotoxic activity against Homo sapiens (human) PA1 cells by clonogenic assay; assay type: functional, cell-based
Bacopa monnieri [11] = experiment: Toxicity against Bacopa monnieri assessed as number of roots at 50 ug/ml after 15 days by Bacopa sensor test (reference value: 2); assay type: organism-based; conditions: in vivo, 360 h
WRL68 [12] = experiment: Ratio of vinblastine IC50 to compound IC50 for Homo sapiens (human) WRL68 cells by MTT assay; assay type: functional
COLO 320 [13] = experiment: Ratio of vinblastine IC50 to compound IC50 for Homo sapiens (human) COLO320 cells by MTT assay; assay type: functional
MCF7 [14] = experiment: Cytotoxic activity against Homo sapiens (human) MCF7 cells by clonogenic assay; assay type: functional, cell-based
Caco-2 [15] = experiment: Cytotoxic activity against Homo sapiens (human) Caco2 cells by clonogenic assay; assay type: functional, cell-based
COLO 320 [16] = experiment: Cytotoxic activity against Homo sapiens (human) COLO320 cells incubated for 4 hr followed by compound wash-out measured after doubling time by MTT assay; assay type: functional, cell-based
Bacopa monnieri [17] = experiment: Toxicity against Bacopa monnieri assessed as number of leaves at 50 ug/ml after 15 days by Bacopa sensor test (reference value: 6); assay type: organism-based; conditions: in vivo, 360 h
Caco-2 [18] = experiment: Ratio of vinblastine IC50 to compound IC50 for Homo sapiens (human) Caco2 cells by MTT assay; assay type: functional
[19] = Homo sapiens, MCF7, 4 h, read-out: IC50
[20] = Homo sapiens, Caco-2, 4 h, read-out: IC50
[21] = Homo sapiens, WRL68, 4 h, read-out: IC50
[22] = Homo sapiens, PA-1, 4 h, read-out: IC50
[23] = Homo sapiens, COLO 320, 4 h, read-out: IC50

SMILES	Activity (Bacopa monnieri [1])	IC50 (MCF7 [2]; [19])	IC50 (Caco-2 [3]; [20])	IC50 (WRL68 [4])	Activity (Bacopa monnieri [5])	IC50 (COLO 320 [6])	IC50 (WRL68 [7]; [21])	Activity (Bacopa monnieri [8])	IC50 (PA-1 [9]; [22])	IC50 (PA-1 [10])	Activity (Bacopa monnieri [11])	IC50 (MCF7 [14])	IC50 (Caco-2 [15])	IC50 (COLO 320 [16]; [23])	Activity (Bacopa monnieri [17])	IC50 (Caco-2 [3]; caco-2)	also measured
CCCCCCCCCCCC(=O)OC[C@H]1O[C@@H](O[C@@H]2OC=C(C(=O)OC)[C@H]3C[C@H](OC(C)=O)[C@H](C)[C@@H]23)[C@H](OC(C)=O)[C@@H](OC(C)=O)[C@@H]1OC(C)=O	Non-toxic	0.24 µg/mL (≈ 0.324 µM)	0.42 µg/mL (≈ 0.567 µM)	2.62 µg/mL (≈ 3.54 µM)	0 cm	0.24 µg/mL (≈ 0.324 µM)	0.85 µg/mL (≈ 1.15 µM)	2	0.15 µg/mL (≈ 0.202 µM)	0.42 µg/mL (≈ 0.567 µM)	3	0.75 µg/mL (≈ 1.01 µM)	1.24 µg/mL (≈ 1.67 µM)	0.04 µg/mL (≈ 0.054 µM)	6		Ratio IC50 (WRL68 [12]): 2; Ratio IC50 (COLO 320 [13]): 13
COC(=O)C1=CO[C@@H](O[C@@H]2O[C@H](COC(c3ccccc3)(c3ccccc3)c3ccccc3)[C@@H](O)[C@H](O)[C@H]2O)[C@@H]2[C@@H](C)[C@@H](O)C[C@H]12 [6'-O-TRITYL LOGANIN]	Non-toxic	1 µg/mL (≈ 1.58 µM)	0.56 µg/mL (≈ 0.885 µM)	4.2 µg/mL (≈ 6.64 µM)	0.4 cm	1.4 µg/mL (≈ 2.21 µM)	1.86 µg/mL (≈ 2.94 µM)	2	0.65 µg/mL (≈ 1.03 µM)	2.42 µg/mL (≈ 3.82 µM)	2	2.8 µg/mL (≈ 4.43 µM)	2.54 µg/mL (≈ 4.01 µM)	0.25 µg/mL (≈ 0.395 µM)	6		
COC(=O)C1=CO[C@@H](O[C@@H]2O[C@H](COC(=O)C=C(C)C)[C@@H](OC(C)=O)[C@H](OC(C)=O)[C@H]2OC(C)=O)[C@@H]2[C@@H](C)[C@@H](OC(C)=O)C[C@H]12	Non-toxic	1 µg/mL (≈ 1.56 µM)	0.8 µg/mL (≈ 1.25 µM)	3.86 µg/mL (≈ 6.03 µM)	0.4 cm	2.84 µg/mL (≈ 4.43 µM)	1.2 µg/mL (≈ 1.87 µM)	2	0.65 µg/mL (≈ 1.01 µM)	1.84 µg/mL (≈ 2.87 µM)	2	4.65 µg/mL (≈ 7.26 µM)	6.2 µg/mL (≈ 9.68 µM)	0.08 µg/mL (≈ 0.125 µM)	6		
CCCCCCCCCCCCCC(=O)OC[C@H]1O[C@@H](O[C@@H]2OC=C(C(=O)OC)[C@H]3C[C@H](OC(C)=O)[C@H](C)[C@@H]23)[C@H](OC(C)=O)[C@@H](OC(C)=O)[C@@H]1OC(C)=O		24.6 µg/mL (≈ 32 µM)					58.5 µg/mL (≈ 76.1 µM)		6.5 µg/mL (≈ 8.45 µM)					30 µg/mL (≈ 39 µM)		Not Active	
COC(=O)C1=CO[C@@H](O[C@@H]2O[C@H](CO)[C@@H](OC(C)=O)[C@H](OC(C)=O)[C@H]2OC(C)=O)[C@@H]2[C@@H](C)[C@@H](OC(C)=O)C[C@H]12																Not Active	IC50 (MCF7 [2]; mcf7): Not Active; IC50 (WRL68 [7]; wrl68): Not Active; IC50 (PA-1 [9]; pa-1): Not Active; IC50 (COLO 320 [16]; colo 320): Not Active
C=CC(=O)OC[C@H]1O[C@@H](O[C@@H]2OC=C(C(=O)OC)[C@H]3C[C@H](OC(C)=O)[C@H](C)[C@@H]23)[C@H](OC(C)=O)[C@@H](OC(C)=O)[C@@H]1OC(C)=O																Not Active	IC50 (MCF7 [2]; mcf7): Not Active; IC50 (WRL68 [7]; wrl68): Not Active; IC50 (PA-1 [9]; pa-1): Not Active; IC50 (COLO 320 [16]; colo 320): Not Active
COC(=O)C1=CO[C@@H](O[C@@H]2O[C@H](COC(=O)c3cc(OC)c(OC)c(OC)c3)[C@@H](OC(C)=O)[C@H](OC(C)=O)[C@H]2OC(C)=O)[C@@H]2[C@@H](C)[C@@H](OC(C)=O)C[C@H]12	Non-toxic	0.25 µg/mL (≈ 0.332 µM)	0.06 µg/mL (≈ 0.0797 µM)	1.2 µg/mL (≈ 1.59 µM)	0.4 cm	0.12 µg/mL (≈ 0.159 µM)	0.54 µg/mL (≈ 0.717 µM)	2	0.1 µg/mL (≈ 0.133 µM)	0.45 µg/mL (≈ 0.598 µM)	2	0.72 µg/mL (≈ 0.957 µM)	0.46 µg/mL (≈ 0.611 µM)	0.04 µg/mL (≈ 0.0531 µM)	4		Ratio IC50 (Caco-2 [18]): 8; Ratio IC50 (WRL68 [12]): 3; Ratio IC50 (COLO 320 [13]): 13
